Laboratory results taken from US5449672A, “Alkylaminoalkylpyrrolidinylthiocarbapenem derivatives” (Banyu Pharmaceutical Co., Ltd., priority 1991, dated 1995).
Converted amounts (≈) assume the structure as drawn. Where two headings read alike, the source gives them in different places. Each block holds one compound with its values, some of them ahead of it.

Experiments:
[1] = system: P. aeruginosa MB5178; assay: Minimum inhibitory concentration (MIC), agar plate dilution method, P. aeruginosa MB5178; assay type: cell-based; conditions: Pseudomonas aeruginosa, read-out: Minimum Inhibitory Concentration (MIC)
Procedure: (§1) One platinum loopful of each test microorganism incubated overnight in Mueller Hinton broth, was inoculated to Mueller Hinton agar (inoculum size: 10^6 CFU/ml). Such culture media contained antibacterial agents in various concentrations. After incubation at 37° C. for 16 hours, the minimum inhibitory concentrations (MIC: μg/ml) were measured. Further, the DHP-I susceptibility was quantitatively analyzed by the method by Kropp et al. (Antimicrob. Agents Chemother., vol. 22, p. 62-70 (1982)), whereby the smaller the numerical value representing the ratio to imipenem (=1.0), the higher the stability.
(§2) The minimum inhibitory concentrations and the DHP-I susceptibility of the compounds of the present invention were compared with imipenem and the compound of REFERENCE EXAMPLE 4.

[2] = system: P. aeruginosa MB5002; assay: Minimum inhibitory concentration (MIC), agar plate dilution method, P. aeruginosa MB5002; assay type: cell-based; conditions: Pseudomonas aeruginosa, read-out: Minimum Inhibitory Concentration (MIC)
Procedure: as §1, §2

[3] = system: DHP-I (renal dehydropeptidase I); assay: DHP-I susceptibility, method by Kropp et al.; assay type: in vitro ADME; conditions: ratio to imipenem (=1.0); the smaller the value, the higher the stability
Procedure: as §1, §2

[4] = system: DHP-I; conditions: in vivo; human kidney for imipenem; cited from earlier work
[5] = system: gram positive bacteria and gram negative bacteria; conditions: literature, in words; cited from earlier work
[6] = in words; cited from earlier work
[7] = cited from earlier work
[8] = system: β-lactamase; conditions: literature, in words; cited from earlier work
[9] = system: Methicillin resistant Staphylococcus aureus and resistant Pseudomonas aeruginosa; conditions: prior-art compounds; highly methicillin resistant S. aureus and resistant P. aeruginosa; cited from earlier work
[10] = due to the decomposition products; cited from earlier work
[11] = P. aeruginosa MB5178, Mueller Hinton agar, inoculum 10^6 CFU/ml, 37° C., 16 hours
[12] = P. aeruginosa MB5002, Mueller Hinton agar, inoculum 10^6 CFU/ml, 37° C., 16 hours

SMILES: CNCC[C@@H]1C[C@H](SC2=C(C(=O)O)N3C(=O)[C@H]([C@@H](C)O)[C@H]3[C@H]2C)CN1 [Example 1, (1R,5S,6S)-6-[(R)-1-Hydroxyethyl]-1-methyl-2-[(2R,4S)-2-[2-(methylamino)ethyl]pyrrolidin-4-ylthio]-1-carbapen-2-em-3-carboxylic Acid]
MIC [1, 11]: 3.13 µg/mL (≈ 8.47 µM) | MIC [2, 12]: 0.78 µg/mL (≈ 2.11 µM) | DHP-I susceptibility [3]: < 0.05

SMILES: C[C@@H](O)[C@H]1C(=O)N2C(C(=O)O)=C(SCCN)C[C@H]12 [Thienamycin]
decomposition by renal dehydropeptidase I (DHP-I) [4]: likely to be decomposed by a certain enzyme in vivo such as renal dehydropeptidase I | antibacterial activities [5]: strong antibacterial activities over a wide range against gram positive bacteria and gram negative bacteria | recovery rate in the urine [6]: low | chemical stability ([7]; literature, in words): chemically unstable

SMILES: C[C@@H](O)[C@H]1C(=O)N2C(C(=O)O)=C(SCCN=CN)C[C@H]12 [Imipenem, (5R,6S,8R)-3-[[2-(formimidoylamino)ethyl]thio]-6-(1-hydroxyethyl)-7-oxo-1-azabicyclo[3.2.0]hept-2-en-2-carboxylic acid monohydrate]
decomposition by renal dehydropeptidase I (DHP-I) [4]: likely to be decomposed by DHP-I in the human kidney | MIC ([1]; MB5178, 16 h): 25 µg/mL | MIC ([2]; MB5002, 16 h): 1.56 µg/mL | β-lactamase resistance [8]: has β-lactamase resistance | treating effects / antibacterial activities against resistant bacteria [9]: does not show adequate treating effects against these resistant bacteria | antibacterial activities [5]: antibacterial activities of an equal or higher level than thienamycin against various types of bacteria | DHP-I susceptibility [3]: 1.0 | toxicity against the kidney [10]: presents toxicity against the kidney due to the decomposition products | stability in the solid form or in an aqueous solution ([7]; relative to thienamycin): remarkably improved over thienamycin

The remaining lines, values ahead:

MIC [1, 11]: 3.13 µg/mL | MIC [2, 12]: 0.78 µg/mL | DHP-I susceptibility [3]: 0.07
SMILES: CNCCC[C@@H]1C[C@H](SC2=C(C(=O)O)N3C(=O)[C@H]([C@@H](C)O)[C@H]3[C@H]2C)CN1.Cl [Example 3, (1R,5S,6S)-6-[(R)-1-Hydroxyethyl]-1-methyl-2-[(2R,4S)-2-[3-(methylamino)propyl]pyrrolidin-4-ylthio]-1-carbapen-2-em-3-carboxylic acid Monohydrochloride]

MIC [1, 11]: 12.5 µg/mL (≈ 32.6 µM) | MIC [2, 12]: 6.25 µg/mL (≈ 16.3 µM) | DHP-I susceptibility [3]: 0.7
SMILES: CC(=O)NC[C@@H]1C[C@H](SC2=C(C(=O)O)N3C(=O)[C@H]([C@@H](C)O)[C@H]3[C@H]2C)CN1 [compound 1, (1R,5S,6S)-2-[(2S,4S)-2-(Acetylaminomethyl)pyrrolidin-4-ylthio]-6-[(R)-1-hydroxyethyl]-1-methyl-1-carbapen-2-em-3-carboxylic Acid]
